Source: patent publication US20060241182A1, “Antibiotic, functional cosmetic and functional food containing levulinic acid and their derivatives” (priority 2001, published 2006)
≈ marks a conversion by molar mass, not a printed value. Read-outs that look alike come from different tables or passages of the source.

Assays:
[1] = test system: Pseudomonas aeruginosa KCTC 1636; experiment: microbe, parasite or virus in culture; details: KCTC1636
Method: (§1) Staphylococcus aureus KCTC 1621, Pseudomonas aeroginosa KCTC 1636, methicillin-resistant Staphylococcus aureus, Vancomycin resistant Enterococcus and R-Pseudomonas aeroginosa were cultured in tryptic soy broth at 37° C. with shaking.
(§2) Wherein, all the bacteria were cultured for 12˜18 hours.
(§3) MIC of levulinic acid was measured on 96 well plates. Media and levulinic acid (200 mg/ml) mixed and diluted 1:2 fold serially. Dilutants were added on 96 well plate. Equal amount of bacterial suspension (10^6 CFU/ml) was added in each well. Wherein the inoculated bacteria were cultured at 30° C. for 12˜18 hours. The proliferations of bacteria on testing medium were measured to determine MIC against the test bacteria.

[2] = test system: Resistant Pseudomonas aeruginosa; experiment: microbe, parasite or virus in culture
Method: as §1, §2, §3

[3] = test system: Staphylococcus aureus KCTC 1621; experiment: microbe, parasite or virus in culture; details: KCTC1621
Method: as §1, §2, §3

[4] = test system: methicillin-resistant Staphylococcus aureus; experiment: microbe, parasite or virus in culture
Method: as §1, §2, §3

[5] = test system: vancomycin-resistant Enterococcus; experiment: microbe, parasite or virus in culture
Method: as §1, §2, §3

Edwardsiella tarda GY-01 = experiment: microbe, parasite or virus in culture; details: GY01
Method: (§4) Lactococcus garvieae YT-3, Edwardsiella tarda GY-01, Vibrio anguillarum YT-85805, Enterococcus faecium KCTC 3095 and tooth-decaying bacteria of Streptococcus spp. were cultured in Brain heart infusion media at 37° C. with shaking. Anaerobic tooth-decaying bacteria, Streptococcus spp., were cultured with standing in gas generating kit. Anaerobic Propionibacterium acnes KCTC 3326, was cultured in GAM media with standing in gas generating kit.
as §2, §3

[6] = test system: Enterococcus faecium KCTC 3095; experiment: microbe, parasite or virus in culture; details: KCTC3095
Method: as §4, §2, §3

[7] = test system: Lactococcus garvieae YT-3; experiment: microbe, parasite or virus in culture; details: YT3
Method: as §4, §2, §3

[8] = test system: Vibrio anguillarum YT-85805; experiment: microbe, parasite or virus in culture; details: YT85805
Method: as §4, §2, §3

[9] = test system: Candida albicans KCTC 7753; experiment: microbe, parasite or virus in culture; details: KCTC7753
Method: as §2, §3

[10] = test system: Salmonella typhimurium KCTC 1925; experiment: microbe, parasite or virus in culture; details: Salmonella enterica
Method: as §2, §3

Escherichia coli O157 = experiment: MIC of levulinic acid, serial dilution on 96 well plates; assay type: cell-based
Method: (§5) Also, Bacillus cereus KCTC 1014, Bacillus subtillis IFO 3007, Escherichia coli O 157 and Escherichia coli 1039 were cultured in complex media (0.8% of nutrient broth, 1% of yeast extract, 2% of NaCl and 0.02% of dextrose) at 37° C. with shaking.
as §2, §3

[11] = test system: Bacillus cereus KCTC 1014; experiment: microbe, parasite or virus in culture; details: KCTC1014
Method: as §5, §2, §3

[12] = test system: Bacillus subtilis IF0 3007; experiment: microbe, parasite or virus in culture; details: IF03007
Method: as §5, §2, §3

[13] = test system: Escherichia coli KCTC 1039; experiment: microbe, parasite or virus in culture; details: KCTC1039
Method: as §5, §2, §3

[14] = test system: Hansenula anomala IFO 0149; experiment: microbe, parasite or virus in culture; details: IFO0149
Method: (§6) Saccharomyces cerevisiae breneri hefe rasse VIII and Hansenula anomala IFO 0149 were cultured in complex medium (0.3% of yeast extract, 0.3% of nutrient broth, 0.5% of peptone and 0.1% of glucose) at 25° C. with shaking.
as §2, §3

[15] = test system: Saccharomyces cerevisiae breneri heferasse VII; experiment: microbe, parasite or virus in culture
Method: as §6, §2, §3

[16] = test system: Propionibacterium acnes KCTC 3326; experiment: microbe, parasite or virus in culture; details: Cutibacterium acnes, KCTC3326
Method: as §4, §2, §3
(§7) Also, in case of anaerobic bacteria, according to the same method as above, cap tubes were used in place of 96 well plates.

[17] = test system: Streptococcus doweni Mfe28; experiment: microbe, parasite or virus in culture
Method: as §4, §2, §3, §7

Streptococcus mutans BHT = experiment: microbe, parasite or virus in culture
Method: as §4, §2, §3, §7

[18] = test system: Streptococcus mutans GS-5; experiment: microbe, parasite or virus in culture; details: GS5
Method: as §4, §2, §3, §7

[19] = test system: Streptococcus mutans HS-6; experiment: microbe, parasite or virus in culture; details: HS6
Method: as §4, §2, §3, §7

[20] = test system: Streptococcus mutans Ingbritt; experiment: microbe, parasite or virus in culture
Method: as §4, §2, §3, §7

[21] = test system: Streptococcus mutans KCTC 3065; experiment: microbe, parasite or virus in culture; details: KCTC3065
Method: as §4, §2, §3, §7

[22] = test system: Streptococcus mutans LM-7; experiment: microbe, parasite or virus in culture; details: LM7
Method: as §4, §2, §3, §7

[23] = test system: Streptococcus mutans OMZ-175; experiment: microbe, parasite or virus in culture; details: OMZ175
Method: as §4, §2, §3, §7

[24] = test system: Streptococcus mutans OMZ-176; experiment: microbe, parasite or virus in culture; details: OMZ176
Method: as §4, §2, §3, §7

[25] = test system: Streptococcus salivarius ATCC 13419; experiment: microbe, parasite or virus in culture; details: ATCC13419
Method: as §4, §2, §3, §7

[26] = test system: Streptococcus sobrinus coykendall 6715-1 ATCC 27352; experiment: microbe, parasite or virus in culture; details: ATCC27352
Method: as §4, §2, §3, §7

Helicobacter pylori = experiment: microbe, parasite or virus in culture
Method: as §2, §3, §7

[27] = test system: mouse fibroblast NIH3T3 cells; details: 52 hours
Method: Cytotoxicity test of levulinic acid was accomplished by using mouse fibroblast NIH3T3 cells as testing cells. The cells were cultured in medium added 16.3 mg/ml, 12.2 mg/ml, 9.8 mg/ml and 4.9 mg/ml of levulinic acid for 52 hours, respectively.

drug-resistant bacteria = details: summary of Table 1
Method: as §1, §4, §2, §3

[28] = test system: pathogen infecting finny tribe and poultry; details: summary of Table 2
Method: as §4, §2, §3

tooth-decaying bacteria = details: summary of Table 3
Method: as §4, §2, §3, §7

[29] = test system: general bacteria and yeast; details: summary of Table 4
Method: as §5, §6, §2, §3

Question: Which results are given for `CC(=O)CCC(=O)O` [levulinic acid]?
Answer: MIC [1]: 1500 µg/mL (≈ 12.9 mM); MIC [2]: 2500 µg/mL (≈ 21.5 mM); MIC [3]: 3500 µg/mL (≈ 30.1 mM); MIC [4]: 4000 µg/mL (≈ 34.4 mM); MIC [5]: 3000 µg/mL (≈ 25.8 mM); MIC (Edwardsiella tarda GY-01): 3500 µg/mL (≈ 30.1 mM); MIC [6]: 4500 µg/mL (≈ 38.8 mM); MIC [7]: 3500 µg/mL (≈ 30.1 mM); MIC [8]: 3000 µg/mL (≈ 25.8 mM); MIC [9]: 6000 µg/mL (≈ 51.7 mM); MIC [10]: 370 µg/mL (≈ 3.19 mM); MIC (Escherichia coli O157): 2000 µg/mL; MIC [11]: 1500 µg/mL (≈ 12.9 mM); MIC [12]: 1500 µg/mL (≈ 12.9 mM); MIC [13]: 2000 µg/mL (≈ 17.2 mM); MIC [14]: 3500 µg/mL (≈ 30.1 mM); MIC [15]: 2500 µg/mL (≈ 21.5 mM); MIC [16]: 6000 µg/mL (≈ 51.7 mM); MIC [17]: 4000 µg/mL (≈ 34.4 mM); MIC (Streptococcus mutans BHT): 4000 µg/mL (≈ 34.4 mM); MIC [18]: 5000 µg/mL (≈ 43.1 mM); MIC [19]: 4000 µg/mL (≈ 34.4 mM); MIC [20]: 4000 µg/mL (≈ 34.4 mM); MIC [21]: 4000 µg/mL (≈ 34.4 mM); MIC [22]: 4000 µg/mL (≈ 34.4 mM); MIC [23]: 4000 µg/mL (≈ 34.4 mM); MIC [24]: 5000 µg/mL (≈ 43.1 mM); MIC [25]: 4000 µg/mL (≈ 34.4 mM); MIC [26]: 4000 µg/mL (≈ 34.4 mM); MIC (Helicobacter pylori): 0.78 µg/mL (≈ 0.00672 mM); Cytotoxicity: death / growth of the cells ([27]; medium added 9.8 mg/ml levulinic acid): not died, but their growth were inhibited; Cytotoxicity: growth of the cells versus control cells ([27]; medium containing 4.9 mg/ml levulinic acid): no difference from one of control cells; Cytotoxicity: death / growth of the cells ([27]; medium containing 12.2 mg/ml levulinic acid): died, or their growth were inhibited; Cytotoxicity: death / growth of the cells ([27]; medium containing 16.3 mg/ml levulinic acid): died, or their growth were inhibited; MIC against drug-resistant bacteria (range over Table 1) (drug-resistant bacteria): 1.5˜4.5 mg/ml; MIC against pathogen infecting finny tribe and poultry (range over Table 2) [28]: 0.37˜3.5 mg/ml; MIC against tooth-decaying bacteria (range over Table 3) (tooth-decaying bacteria): 4˜5 mg/ml; MIC against general bacteria and yeast (range over Table 4) [29]: 1.5˜6 mg/ml
